# Measured values reported in patent US20230085307A1, “PYRIDAZINONE COMPOUND AND HERBICIDE” (NISSAN CHEMICAL CORPORATION, priority 2019, published 2023).
# Columns and labels:
# rice flat sedge = assay: Test Example 3: herbicidal effect by foliage application, Wagner pot (Table 18, symbol E); type: in vivo, rice flat sedge (Cyperus iria)
# Procedure, shortened: (§1)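 Plants were sown in alluvial soil held under 0.1–0.5 cm standing water and grown 14 days in a greenhouse at 25–30 °C. An emulsifiable formulation, water-diluted to the set dose, was then sprayed onto the foliage, and effects were scored three weeks later using previously defined criteria.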
# wild oat [1] = assay: Test Example 5: herbicidal effect by foliage application, plastic box (Table 20, symbol I); type: in vivo, wild oat (Avena fatua); conditions: foliage application
# Procedure, shortened: (§2)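 Sow seeds spot-wise in sterilized diluvial soil; cover with ~1.5 cm soil. Grow 14 days in greenhouse, 25° C. to 30° C. Spray foliage with emulsion diluted to predetermined amount. Rate effect after 3 weeks.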
# Italian ryegrass [2] = assay: Test Example 4: herbicidal effect by soil treatment (Table 19, symbol K); type: in vivo, Italian ryegrass (Lolium multiflorum); conditions: amount of applied herbicide 320 g/ha
# Procedure, shortened: (§3)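 Applied as a water-diluted emulsion, the compound was sprayed onto soil covering newly sown seeds. Evaluation came three weeks after application, in a greenhouse held at 25° C. to 30° C.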
# Italian ryegrass [3] = assay: Test Example 5: herbicidal effect by foliage application, plastic box (Table 20, symbol K); type: in vivo, Italian ryegrass (Lolium multiflorum); conditions: foliage application
# Procedure, shortened: as §2
# chickweed [4] = assay: Test Example 4: herbicidal effect by soil treatment (Table 19, symbol P); type: in vivo, common chickweed (Stellaria media); conditions: amount of applied herbicide 320 g/ha
# Procedure, shortened: as §3
# velvetleaf [5] = assay: Test Example 4: herbicidal effect by soil treatment (Table 19, symbol M); type: in vivo, velvetleaf (Abutilon theophrasti); conditions: amount of applied herbicide 320 g/ha
# Procedure, shortened: as §3
# green foxtail [6] = assay: Test Example 5: herbicidal effect by foliage application, plastic box (Table 20, symbol G); type: in vivo, green foxtail (Setaria viridis); conditions: foliage application
# Procedure, shortened: as §2
# persian speedwell [7] = assay: Test Example 4: herbicidal effect by soil treatment (Table 19, symbol R); type: in vivo, Persian speedwell (Veronica persica); conditions: amount of applied herbicide 320 g/ha
# Procedure, shortened: as §3
# southern crabgrass [8] = assay: Test Example 4: herbicidal effect by soil treatment (Table 19, symbol F); type: in vivo, southern crabgrass (Digitaria ciliaris); conditions: amount of applied herbicide 320 g/ha
# Procedure, shortened: as §3
# barnyard grass [9] = assay: Test Example 3: herbicidal effect by foliage application, Wagner pot (Table 18, symbol H); type: in vivo, barnyard grass (Echinochloa crus-galli)
# Procedure, shortened: as §1
# green foxtail [10] = assay: Test Example 4: herbicidal effect by soil treatment (Table 19, symbol G); type: in vivo, green foxtail (Setaria viridis); conditions: amount of applied herbicide 320 g/ha
# Procedure, shortened: as §3
# barnyard grass [11] = assay: Test Example 4: herbicidal effect by soil treatment (Table 19, symbol H); type: in vivo, barnyard grass (Echinochloa crus-galli); conditions: amount of applied herbicide 320 g/ha
# Procedure, shortened: as §3
# velvetleaf [12] = assay: Test Example 5: herbicidal effect by foliage application, plastic box (Table 20, symbol M); type: in vivo, velvetleaf (Abutilon theophrasti); conditions: foliage application
# Procedure, shortened: as §2
# lambsquarters [13] = assay: Test Example 4: herbicidal effect by soil treatment (Table 19, symbol O); type: in vivo, lambsquarters (Chenopodium album); conditions: amount of applied herbicide 320 g/ha
# Procedure, shortened: as §3
# redroot pigweed [14] = assay: Test Example 5: herbicidal effect by foliage application, plastic box (Table 20, symbol N); type: in vivo, redroot pigweed (Amaranthus retroflexus); conditions: foliage application
# Procedure, shortened: as §2
# wild oat [15] = assay: Test Example 4: herbicidal effect by soil treatment (Table 19, symbol I); type: in vivo, wild oat (Avena fatua); conditions: amount of applied herbicide 320 g/ha
# Procedure, shortened: as §3
# late watergrass = assay: Test Example 1: herbicidal activity, application before weed generation under submerged conditions (Table 16, symbol A); type: in vivo, late watergrass (Echinochloa oryzicola)
# Procedure, shortened: (§4)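 Emulsion formulation, water-diluted to set dose, was put onto the flooded surface (4 cm depth, alluvial soil) the same day weeds were sown and 2.5-leaf rice transplanted. After 3 weeks at 25-30 °C under glass, each species was rated 0 (≤5% kill) to 5 (≥90% kill).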
# barnyard grass [16] = assay: Test Example 5: herbicidal effect by foliage application, plastic box (Table 20, symbol H); type: in vivo, barnyard grass (Echinochloa crus-galli); conditions: foliage application
# Procedure, shortened: as §2
# lambsquarters [17] = assay: Test Example 5: herbicidal effect by foliage application, plastic box (Table 20, symbol O); type: in vivo, lambsquarters (Chenopodium album); conditions: foliage application
# Procedure, shortened: as §2
# windgrass [18] = assay: Test Example 4: herbicidal effect by soil treatment (Table 19, symbol L); type: in vivo, windgrass (Apera spica-venti); conditions: amount of applied herbicide 320 g/ha
# Procedure, shortened: as §3
# Chinese sprangletop = assay: Test Example 3: herbicidal effect by foliage application, Wagner pot (Table 18, symbol D); type: in vivo, chinese sprangletop (Leptochloa chinensis)
# Procedure, shortened: as §1
# blackgrass [19] = assay: Test Example 5: herbicidal effect by foliage application, plastic box (Table 20, symbol J); type: in vivo, blackgrass (Alopecurus myosuroides); conditions: foliage application
# Procedure, shortened: as §2
# persian speedwell [20] = assay: Test Example 5: herbicidal effect by foliage application, plastic box (Table 20, symbol R); type: in vivo, Persian speedwell (Veronica persica); conditions: foliage application
# Procedure, shortened: as §2
# windgrass [21] = assay: Test Example 5: herbicidal effect by foliage application, plastic box (Table 20, symbol L); type: in vivo, windgrass (Apera spica-venti); conditions: foliage application
# Procedure, shortened: as §2
# chickweed [22] = assay: Test Example 5: herbicidal effect by foliage application, plastic box (Table 20, symbol P); type: in vivo, common chickweed (Stellaria media); conditions: foliage application
# Procedure, shortened: as §2
# Japanese bulrush = assay: Test Example 1: herbicidal activity, application before weed generation under submerged conditions (Table 16, symbol B); type: in vivo, Japanese bulrush (Schoenoplectus juncoides)
# Procedure, shortened: as §4
# southern crabgrass [23] = assay: Test Example 5: herbicidal effect by foliage application, plastic box (Table 20, symbol F); type: in vivo, southern crabgrass (Digitaria ciliaris); conditions: foliage application
# Procedure, shortened: as §2
# oval-leafed pondweed = assay: Test Example 1: herbicidal activity, application before weed generation under submerged conditions (Table 16, symbol C); type: in vivo, oval-leafed pondweed (Monochoria vaginalis)
# Procedure, shortened: as §4
# redroot pigweed [24] = assay: Test Example 4: herbicidal effect by soil treatment (Table 19, symbol N); type: in vivo, redroot pigweed (Amaranthus retroflexus); conditions: amount of applied herbicide 320 g/ha
# Procedure, shortened: as §3
# blackgrass [25] = assay: Test Example 4: herbicidal effect by soil treatment (Table 19, symbol J); type: in vivo, blackgrass (Alopecurus myosuroides); conditions: amount of applied herbicide 320 g/ha
# Procedure, shortened: as §3
# [26] = amount of applied herbicide 320 g/ha
# [27] = AAH 320 g/ha, evaluated three weeks after application
# [28] = 320 g/ha, three weeks after application
structure (smiles),measurement,setting,value
CCCC(=O)Oc1c(C)nn(C)c(=O)c1-c1c(-c2ccc3c(c2)OC(F)(F)O3)sc2ccc(F)cc12 [2-393],herbicidal effect on E: rice flat sedge,rice flat sedge; [26],3 (Herbicidal rate of 40% or more and less than 70%)
same,"I: wild oat, herbicidal effect (criteria 0-5)",wild oat [1]; [27],4 (Herbicidal rate of 70% or more and less than 90%)
same,"herbicidal effect, K: Italian ryegrass",Italian ryegrass [2],4 (Herbicidal rate of 70% or more and less than 90%)
same,"K: Italian ryegrass, herbicidal effect (criteria 0-5)",Italian ryegrass [3]; [27],4 (Herbicidal rate of 70% or more and less than 90%)
same,"herbicidal effect, P: chickweed",chickweed [4],4 (Herbicidal rate of 70% or more and less than 90%)
same,"herbicidal effect, M: velvetleaf",velvetleaf [5],0 (Herbicidal rate of 5% or less (almost no effect))
same,"G: green foxtail, herbicidal effect (criteria 0-5)",green foxtail [6]; [27],4 (Herbicidal rate of 70% or more and less than 90%)
same,"herbicidal effect, R: persian speedwell",persian speedwell [7],4 (Herbicidal rate of 70% or more and less than 90%)
same,"herbicidal effect, F: southern crabgrass",southern crabgrass [8],0 (Herbicidal rate of 5% or less (almost no effect))
same,herbicidal effect on H: barnyard grass,barnyard grass [9]; [26],5 (Herbicidal rate of 90% or more (almost completely withered))
same,"herbicidal effect, G: green foxtail",green foxtail [10],0 (Herbicidal rate of 5% or less (almost no effect))
same,"herbicidal effect, H: barnyard grass",barnyard grass [11],0 (Herbicidal rate of 5% or less (almost no effect))
same,"M: velvetleaf, herbicidal effect (criteria 0-5)",velvetleaf [12]; [27],4 (Herbicidal rate of 70% or more and less than 90%)
same,"herbicidal effect, O: lambsquarters",lambsquarters [13],0 (Herbicidal rate of 5% or less (almost no effect))
same,"N: redroot pigweed, herbicidal effect (criteria 0-5)",redroot pigweed [14]; [27],4 (Herbicidal rate of 70% or more and less than 90%)
same,"herbicidal effect, I: wild oat",wild oat [15],0 (Herbicidal rate of 5% or less (almost no effect))
same,"Herbicidal effect, A: late watergrass",late watergrass; [26],3 (Herbicidal rate of 40% or more and less than 70%)
same,"H: barnyard grass, herbicidal effect (criteria 0-5)",barnyard grass [16]; [27],5 (Herbicidal rate of 90% or more (almost completely withered))
same,"O: lambsquarters, herbicidal effect (criteria 0-5)",lambsquarters [17]; [27],4 (Herbicidal rate of 70% or more and less than 90%)
same,"herbicidal effect, L: windgrass",windgrass [18],5 (Herbicidal rate of 90% or more (almost completely withered))
same,herbicidal effect on D: Chinese sprangletop,Chinese sprangletop; [26],1 (Herbicidal rate of 5% or more and less than 20%)
same,"J: blackgrass, herbicidal effect (criteria 0-5)",blackgrass [19]; [27],1 (Herbicidal rate of 5% or more and less than 20%)
same,"R: persian speedwell, herbicidal effect (criteria 0-5)",persian speedwell [20]; [27],5 (Herbicidal rate of 90% or more (almost completely withered))
same,"L: windgrass, herbicidal effect (criteria 0-5)",windgrass [21]; [27],5 (Herbicidal rate of 90% or more (almost completely withered))
same,"P: chickweed, herbicidal effect (criteria 0-5)",chickweed [22]; [27],5 (Herbicidal rate of 90% or more (almost completely withered))
same,"Herbicidal effect, B: Japanese bulrush",Japanese bulrush; [26],0 (Herbicidal rate of 5% or less (almost no effect))
same,"F: southern crabgrass, herbicidal effect (criteria 0-5)",southern crabgrass [23]; [27],1 (Herbicidal rate of 5% or more and less than 20%)
same,"Herbicidal effect, C: oval-leafed pondweed",oval-leafed pondweed; [26],0 (Herbicidal rate of 5% or less (almost no effect))
same,"herbicidal effect, N: redroot pigweed",redroot pigweed [24],0 (Herbicidal rate of 5% or less (almost no effect))
CCOc1ccccc1-c1sc2ccccc2c1-c1c(O)c(C)nn(C)c1=O [1-011],"herbicidal effect on E (rice flat sedge), rating 0-5",rice flat sedge; 320 g/ha,5 (Herbicidal rate of 90% or more (almost completely withered))
same,"herbicidal effect grade, I: wild oat",wild oat [1]; [28],4 (Herbicidal rate of 70% or more and less than 90%)
same,"herbicidal effect rating, K: Italian ryegrass",Italian ryegrass [2],3 (Herbicidal rate of 40% or more and less than 70%)
same,"herbicidal effect grade, K: Italian ryegrass",Italian ryegrass [3]; [28],4 (Herbicidal rate of 70% or more and less than 90%)
same,"herbicidal effect rating, J: blackgrass",blackgrass [25],4 (Herbicidal rate of 70% or more and less than 90%)
same,"herbicidal effect rating, P: chickweed",chickweed [4],5 (Herbicidal rate of 90% or more (almost completely withered))
same,"herbicidal effect rating, M: velvetleaf",velvetleaf [5],0 (Herbicidal rate of 5% or less (almost no effect))
same,"herbicidal effect grade, G: green foxtail",green foxtail [6]; [28],5 (Herbicidal rate of 90% or more (almost completely withered))
same,"herbicidal effect rating, R: persian speedwell",persian speedwell [7],5 (Herbicidal rate of 90% or more (almost completely withered))
same,"herbicidal effect rating, F: southern crabgrass",southern crabgrass [8],3 (Herbicidal rate of 40% or more and less than 70%)
same,"herbicidal effect on H (barnyard grass), rating 0-5",barnyard grass [9]; 320 g/ha,5 (Herbicidal rate of 90% or more (almost completely withered))
same,"herbicidal effect rating, G: green foxtail",green foxtail [10],5 (Herbicidal rate of 90% or more (almost completely withered))
same,"herbicidal effect rating, H: barnyard grass",barnyard grass [11],5 (Herbicidal rate of 90% or more (almost completely withered))
same,"herbicidal effect grade, M: velvetleaf",velvetleaf [12]; [28],3 (Herbicidal rate of 40% or more and less than 70%)
same,"herbicidal effect rating, O: lambsquarters",lambsquarters [13],4 (Herbicidal rate of 70% or more and less than 90%)
same,"herbicidal effect grade, N: redroot pigweed",redroot pigweed [14]; [28],5 (Herbicidal rate of 90% or more (almost completely withered))
same,"herbicidal effect rating, I: wild oat",wild oat [15],2 (Herbicidal rate of 20% or more and less than 40%)
same,Herbicidal effect on A: late watergrass (grade 0-5),late watergrass; 320 g/ha applied herbicide,5 (Herbicidal rate of 90% or more (almost completely withered))
same,"herbicidal effect grade, H: barnyard grass",barnyard grass [16]; [28],5 (Herbicidal rate of 90% or more (almost completely withered))
same,"herbicidal effect grade, O: lambsquarters",lambsquarters [17]; [28],2 (Herbicidal rate of 20% or more and less than 40%)
same,"herbicidal effect on D (Chinese sprangletop), rating 0-5",Chinese sprangletop; 320 g/ha,3 (Herbicidal rate of 40% or more and less than 70%)
same,"herbicidal effect grade, J: blackgrass",blackgrass [19]; [28],5 (Herbicidal rate of 90% or more (almost completely withered))
same,"herbicidal effect grade, R: persian speedwell",persian speedwell [20]; [28],5 (Herbicidal rate of 90% or more (almost completely withered))
same,"herbicidal effect grade, L: windgrass",windgrass [21]; [28],4 (Herbicidal rate of 70% or more and less than 90%)
same,"herbicidal effect grade, P: chickweed",chickweed [22]; [28],5 (Herbicidal rate of 90% or more (almost completely withered))
same,Herbicidal effect on B: Japanese bulrush (grade 0-5),Japanese bulrush; 320 g/ha applied herbicide,0 (Herbicidal rate of 5% or less (almost no effect))
same,"herbicidal effect grade, F: southern crabgrass",southern crabgrass [23]; [28],5 (Herbicidal rate of 90% or more (almost completely withered))
same,Herbicidal effect on C: oval-leafed pondweed (grade 0-5),oval-leafed pondweed; 320 g/ha applied herbicide,0 (Herbicidal rate of 5% or less (almost no effect))
same,"herbicidal effect rating, N: redroot pigweed",redroot pigweed [24],4 (Herbicidal rate of 70% or more and less than 90%)
